Source: the supplement of paper PMC11208160

Assay: recombinant UMI read abundance after kanamycin selection (control-corrected) (log10(CPM+1)); higher = more efficient recombination; extreme values may be limits of the assay; sequences stand for … in AGTGCAGAGAAAATCGGCCAGTTTTCTCTGCCTGCAGTCCGCATGCCGTGGGACCCCTTGGGTTCTAACCTGTTGCCTAGATTTATGCAGCGGACTGCCTTTCTCCCAAAGTGATAAACCGG…AGGTTGGTTTCACT; site = the 11-nt donor
Summary of the method: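 Two replicates each of selected and unselected plating were used in this pooled Escherichia coli screen of donor and donor-binding-loop pairs for the IS621 bridge recombinase. Selection was with IPTG (0.07 mM) and kanamycin. Counts of recombinant UMIs, amplified across the donor–target junction, were converted to CPM, averaged, scaled by control-derived factors and reported as log10(CPM+1).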
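Note: IS621 bridge recombinase in Escherichia coli cells against a fixed T5 target plasmid.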

Sequence	recombinant UMI read abundance (log10)
ACCTAGACATGGACCGGTTTTCCCGGTAATCCGTATTTGGG (site ATCTAGACTCC)	0.015
ACCTAGACATGGACCGGTTTTCCCGGTAATCCGTATTTGGG (site CCCTAGACTCC)	0.00828
ACCTAGACATGGACCGGTTTTCCCGGTAATCCGTATTTGGG (site GCCTAGACTCC)	0.00312
ACCTAGACATGGACCGGTTTTCCCGGTAATCCGTATTTGGG (site TCCTAGACTCC)	0.0161
ACCTAGCCATGGACCGGTTTTCCCGGTAATCCGTATTTGCC (site ACCTAGCCTGG)	0
ACCTAGCCATGGACCGGTTTTCCCGGTAATCCGTATTTGCC (site CCCTAGCCTGG)	0
ACCTAGCCATGGACCGGTTTTCCCGGTAATCCGTATTTGCC (site GCCTAGCCTGG)	0
ACCTAGCCATGGACCGGTTTTCCCGGTAATCCGTATTTGCC (site TCCTAGCCTGG)	0
ACCTAGGCATGGACCGGTTTTCCCGGTAATCCGTATTTGGG (site ACCTAGACTCC)	0.00318
ACCTAGGCATGGACCGGTTTTCCCGGTAATCCGTATTTGGG (site ACCTAGCCTCC)	0.0364
ACCTAGGCATGGACCGGTTTTCCCGGTAATCCGTATTTGGG (site ACCTAGGCTCC)	0.0121
ACCTAGGCATGGACCGGTTTTCCCGGTAATCCGTATTTGGG (site ACCTAGTCTCC)	0.0121
ACCTCGACATGGACCGGTTTTCCCGGTAATCCGTATTTGGG (site ACCTAGACTCC)	0.0526
ACCTCGACATGGACCGGTTTTCCCGGTAATCCGTATTTGGG (site ACCTCGACTCC)	0.00574
ACCTCGACATGGACCGGTTTTCCCGGTAATCCGTATTTGGG (site ACCTGGACTCC)	0.0333
ACCTCGACATGGACCGGTTTTCCCGGTAATCCGTATTTGGG (site ACCTTGACTCC)	0
ACCTCTACATGGACCGGTTTTCCCGGTAATCCGTATTTGTG (site ACATCTACTCA)	0.014
ACCTCTACATGGACCGGTTTTCCCGGTAATCCGTATTTGTG (site ACCTCTACTCA)	0.0203
ACCTCTACATGGACCGGTTTTCCCGGTAATCCGTATTTGTG (site ACGTCTACTCA)	0.0131
ACCTCTACATGGACCGGTTTTCCCGGTAATCCGTATTTGTG (site ACTTCTACTCA)	0.0231
ACCTGGACATGGACCGGTTTTCCCGGTAATCCGTATTTGGG (site ACCTAGACTCC)	0.00306
ACCTGGACATGGACCGGTTTTCCCGGTAATCCGTATTTGGG (site ACCTCGACTCC)	0.00694
ACCTGGACATGGACCGGTTTTCCCGGTAATCCGTATTTGGG (site ACCTGGACTCC)	0.0305
ACCTGGACATGGACCGGTTTTCCCGGTAATCCGTATTTGGG (site ACCTTGACTCC)	0.0114
ACCTTCGCATGGACCGGTTTTCCCGGTAATCCGTATTTGGC (site ACCTTCGCTGC)	1.56

Sequence	recombinant UMI read abundance (log10)
ACCTTTCCATGGACCGGTTTTCCCGGTAATCCGTATTTGCT (site ACCTTTCCTAG)	0
ACGAAAACATGGACCGGTTTTCCCGGTAATCCGTATTTGTT (site ACGAAAACTAA)	1.37
ACGAAACCATGGACCGGTTTTCCCGGTAATCCGTATTTGGA (site ACGAAACCTTC)	0
ACGAAGGCATGGACCGGTTTTCCCGGTAATCCGTATTTGAC (site ACGAAGGCTGT)	2.46
ACGAAGTCATGGACCGGTTTTCCCGGTAATCCGTATTTGCA (site ACGAAGTCTTG)	3.09
ACGAAGTCATGGACCGGTTTTCCCGGTAATCCGTATTTGCA (site AGGAAGACTTG)	0
ACGACGGCATGGACCGGTTTTCCCGGTAATCCGTATTTGAA (site ACGACGGCTTT)	1.59
ACGAGGTCATGGACCGGTTTTCCCGGTAATCCGTATTTGAC (site ACGAGGTCTGT)	2.91
ACGCAACCATGGACCGGTTTTCCCGGTAATCCGTATTTGCT (site ACGCAACCTAG)	0
ACGCCGTCATGGACCGGTTTTCCCGGTAATCCGTATTTGGT (site ACGCCGTCTAC)	1.61
ACGCGAACATGGACCGGTTTTCCCGGTAATCCGTATTTGTC (site ACACGAACTGA)	2.62
ACGCGAACATGGACCGGTTTTCCCGGTAATCCGTATTTGTC (site ACCCGAACTGA)	0
ACGCGAACATGGACCGGTTTTCCCGGTAATCCGTATTTGTC (site ACGCGAACTGA)	2.38
ACGCGAACATGGACCGGTTTTCCCGGTAATCCGTATTTGTC (site ACTCGAACTGA)	0
ACGCGTACATGGACCGGTTTTCCCGGTAATCCGTATTTGGA (site ACGCGTACTTC)	1.12
ACGGAGACATGGACCGGTTTTCCCGGTAATCCGTATTTGCA (site ACGGAGACTTG)	2.64
ACGGAGACATGGACCGGTTTTCCCGGTAATCCGTATTTGCA (site AGGAAGACTTG)	0
ACGGCCTCATGGACCGGTTTTCCCGGTAATCCGTATTTGGT (site ACGGCCTCTAC)	2.1
ACGGCGTCATGGACCGGTTTTCCCGGTAATCCGTATTTGTC (site ACGGCGTCTGA)	3.22
ACGGGGCCATGGACCGGTTTTCCCGGTAATCCGTATTTGCA (site ACGGGGCCTTG)	0
ACGGTGCCATGGACCGGTTTTCCCGGTAATCCGTATTTGAA (site ACGGTGCCTTT)	0.00366
ACGTACACATGGACCGGTTTTCCCGGTAATCCGTATTTGCA (site ACGTACACTTG)	2.71
ACGTCATCATGGACCGGTTTTCCCGGTAATCCGTATTTGTT (site ACGTCATCTAA)	1.69
ACGTCGACATGGACCGGTTTTCCCGGTAATCCGTATTTGTT (site ACGTCGACTAA)	0.654
ACGTGAGCATGGACCGGTTTTCCCGGTAATCCGTATTTGCC (site ACGTGAGCTGG)	2.7

Sequence	recombinant UMI read abundance (log10)
ACGTGGACATGGACCGGTTTTCCCGGTAATCCGTATTTGTG (site ACGTGGACTCA)	1.53
ACGTTAGCATGGACCGGTTTTCCCGGTAATCCGTATTTGAT (site ACGTTAGCTAT)	2.62
ACTAAACCATGGACCGGTTTTCCCGGTAATCCGTATTTGCG (site ACTAAACCTCG)	0
ACTAAATCATGGACCGGTTTTCCCGGTAATCCGTATTTGGC (site ACTAAATCTGC)	0.218
ACTAATACATGGACCGGTTTTCCCGGTAATCCGTATTTGGC (site ACTAATACTGC)	0.399
ACTAATACATGGACCGGTTTTCCCGGTAATCCGTATTTGGC (site CCTAATACTGC)	0
ACTAATACATGGACCGGTTTTCCCGGTAATCCGTATTTGGC (site GCTAATACTGC)	1.02
ACTAATACATGGACCGGTTTTCCCGGTAATCCGTATTTGGC (site TCTAATACTGC)	1.03
ACTACAACATGGACCGGTTTTCCCGGTAATCCGTATTTGTG (site ACTACAACTCA)	0.339
ACTACTGCATGGACCGGTTTTCCCGGTAATCCGTATTTGGT (site ACTAATGCTAC)	0.0144
ACTACTGCATGGACCGGTTTTCCCGGTAATCCGTATTTGGT (site ACTACTGCTAC)	0.247
ACTACTGCATGGACCGGTTTTCCCGGTAATCCGTATTTGGT (site ACTAGTGCTAC)	0.0166
ACTACTGCATGGACCGGTTTTCCCGGTAATCCGTATTTGGT (site ACTATTGCTAC)	0.00304
ACTAGCACATGGACCGGTTTTCCCGGTAATCCGTATTTGAG (site ACTAGAACTCT)	0.495
ACTAGCACATGGACCGGTTTTCCCGGTAATCCGTATTTGAG (site ACTAGCACTCT)	1.48
ACTAGCACATGGACCGGTTTTCCCGGTAATCCGTATTTGAG (site ACTAGGACTCT)	0.0266
ACTAGCACATGGACCGGTTTTCCCGGTAATCCGTATTTGAG (site ACTAGTACTCT)	0.517
ACTAGCTCATGGACCGGTTTTCCCGGTAATCCGTATTTGTT (site ACTAGCTCTAA)	0.346
ACTAGGACATGGACCGGTTTTCCCGGTAATCCGTATTTGCT (site ACTAGGACTAG)	2.36
ACTAGGGCATGGACCGGTTTTCCCGGTAATCCGTATTTGAG (site ACTAGGGCTCT)	1.52
ACTAGTGCATGGACCGGTTTTCCCGGTAATCCGTATTTGAT (site ACTAGTGCTAA)	0.0209
ACTAGTGCATGGACCGGTTTTCCCGGTAATCCGTATTTGAT (site ACTAGTGCTAC)	0.0203
ACTAGTGCATGGACCGGTTTTCCCGGTAATCCGTATTTGAT (site ACTAGTGCTAG)	0.00388
ACTAGTGCATGGACCGGTTTTCCCGGTAATCCGTATTTGAT (site ACTAGTGCTAT)	2.1
ACTAGTGCATGGACCGGTTTTCCCGGTAATCCGTATTTGCT (site ACTAGTGCTAA)	0.335
